Source: ChEMBL document CHEMBL1201862, “PubChem BioAssay data set” (2004)
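Protocol summary: plate cells (96-well), add compound at 5 concentrations, incubate 48 h, interpolate endpoints linearly. GI50 is the concentration that inhibits growth by half.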 The source made the active and inactive calls. Cut-off read from the data, not from the text of the source: active = GI50 up to about 1.1 µM and inactive = higher.

What was measured:
Assay in all cases: inhibition of tumour cell growth, NCI panel, 48 h
[1] = tested on: 786-0
[2] = tested on: A498
[3] = tested on: A549
[4] = tested on: ACHN
[5] = tested on: BT-549
[6] = tested on: CAKI-1
[7] = tested on: CCRF-CEM
[8] = tested on: COLO 205
[9] = tested on: DU-145
[10] = tested on: EKVX
[11] = tested on: HCC 2998
[12] = tested on: HCT-116
[13] = tested on: HCT-15
[14] = tested on: HOP-62
[15] = tested on: HT-29
[16] = tested on: Hs-578T
[17] = tested on: IGROV-1
[18] = tested on: K562
[19] = tested on: KM12
[20] = tested on: M14
[21] = tested on: MCF7
[22] = tested on: MDA-MB-231
[23] = tested on: MDA-MB-435
[24] = tested on: MDA-N
[25] = tested on: MOLT-4
[26] = tested on: Malme-3M
[27] = tested on: NCI-H226
[28] = tested on: NCI-H23
[29] = tested on: NCI-H522
[30] = tested on: NCI/ADR-RES
[31] = tested on: OVCAR-3
[32] = tested on: OVCAR-4
[33] = tested on: OVCAR-5
[34] = tested on: OVCAR-8
[35] = tested on: PC-3
[36] = tested on: RPMI-8226
[37] = tested on: RXF 393
[38] = tested on: SF-268
[39] = tested on: SF-295
[40] = tested on: SK-MEL-28
[41] = tested on: SK-MEL-2
[42] = tested on: SK-MEL-5
[43] = tested on: SK-OV-3
[44] = tested on: SN12C
[45] = tested on: SNB-19
[46] = tested on: SNB-75
[47] = tested on: SR
[48] = tested on: SW-620
[49] = tested on: T47D
[50] = tested on: TK-10
[51] = tested on: U-251
[52] = tested on: UACC-257
[53] = tested on: UACC-62
[54] = tested on: UO-31
[55] = tested on: HL-60
[56] = tested on: HOP-92
[57] = tested on: LOX IMVI
[58] = tested on: NCI-H460
[59] = tested on: SF-539

## CN(C)C(=C1c2cc([N+](=O)[O-])ccc2-c2ccc([N+](=O)[O-])cc21)N(C)C
[1]
  GI50: > 100 µM (inactive)
[2]
  GI50: > 100 µM (inactive)
[3]
  GI50: > 100 µM (inactive)
[4]
  GI50: > 100 µM (inactive)
[5]
  GI50: > 100 µM (inactive)
[6]
  GI50: 5.93 µM (inactive)
[7]
  GI50: > 100 µM (inactive)
[8]
  GI50: > 100 µM (inactive)
[9]
  GI50: > 100 µM (inactive)
[10]
  GI50: > 100 µM (inactive)
[11]
  GI50: > 100 µM (inactive)
[12]
  GI50: > 100 µM (inactive)
[13]
  GI50: > 100 µM
[14]
  GI50: > 100 µM (inactive)
[15]
  GI50: > 100 µM (inactive)
[16]
  GI50: > 100 µM (inactive)
[17]
  GI50: > 100 µM (inactive)
[18]
  GI50: > 100 µM (inactive)
[19]
  GI50: > 100 µM (inactive)
[20]
  GI50: > 100 µM (inactive)
[21]
  GI50: > 100 µM (inactive)
[22]
  GI50: > 100 µM (inactive)
[23]
  GI50: > 100 µM (inactive)
[24]
  GI50: > 100 µM (inactive)
[25]
  GI50: 5.24 µM (inactive)
[26]
  GI50: > 100 µM (inactive)
[27]
  GI50: > 100 µM (inactive)
[28]
  GI50: > 100 µM (inactive)
[29]
  GI50: > 100 µM (inactive)
[30]
  GI50: > 100 µM (inactive)
[31]
  GI50: > 100 µM (inactive)
[32]
  GI50: > 100 µM (inactive)
[33]
  GI50: > 100 µM (inactive)
[34]
  GI50: > 100 µM (inactive)
[35]
  GI50: > 100 µM (inactive)
[36]
  GI50: 3.32 µM (inactive)
[37]
  GI50: > 100 µM (inactive)
[38]
  GI50: > 100 µM (inactive)
[39]
  GI50: > 100 µM (inactive)
[40]
  GI50: > 100 µM (inactive)
[41]
  GI50: > 100 µM (inactive)
[42]
  GI50: > 100 µM (inactive)
[43]
  GI50: > 100 µM (inactive)
[44]
  GI50: > 100 µM (inactive)
[45]
  GI50: > 100 µM (inactive)
[46]
  GI50: > 100 µM (inactive)
[47]
  GI50: 2.37 µM (inactive)
[48]
  GI50: > 100 µM (inactive)
[49]
  GI50: 4.11 µM (inactive)
[50]
  GI50: > 100 µM (inactive)
[51]
  GI50: > 100 µM (inactive)
[52]
  GI50: > 100 µM (inactive)
[53]
  GI50: > 100 µM (inactive)
[54]
  GI50: 56.2 µM (inactive)

## Clc1nc2c(N3CCCC3)nc(N3CCNCC3)nc2[nH]1
[1]
  GI50: 17.8 µM (inactive)
[3]
  GI50: 17.9 µM (inactive)
[4]
  GI50: 19.9 µM (inactive)
[5]
  GI50: 29.4 µM (inactive)
[6]
  GI50: 39 µM (inactive)
[7]
  GI50: 19.4 µM (inactive)
[8]
  GI50: 16.4 µM (inactive)
[9]
  GI50: 16.4 µM (inactive)
[10]
  GI50: 17.3 µM (inactive)
[11]
  GI50: 15.9 µM (inactive)
[12]
  GI50: 16 µM (inactive)
[13]
  GI50: 18.9 µM
[55]
  GI50: 19.5 µM (inactive)
[14]
  GI50: 20 µM (inactive)
[56]
  GI50: 16.6 µM (inactive)
[15]
  GI50: 17.4 µM (inactive)
[16]
  GI50: > 100 µM (inactive)
[17]
  GI50: 17.9 µM (inactive)
[18]
  GI50: 23.1 µM (inactive)
[19]
  GI50: 18.1 µM (inactive)
[57]
  GI50: 15.8 µM (inactive)
[20]
  GI50: 19.7 µM (inactive)
[21]
  GI50: 17.7 µM (inactive)
[22]
  GI50: 16.4 µM (inactive)
[23]
  GI50: 18.7 µM (inactive)
[24]
  GI50: 17.6 µM (inactive)
[25]
  GI50: 20.9 µM (inactive)
[26]
  GI50: 20.7 µM (inactive)
[27]
  GI50: > 100 µM (inactive)
[28]
  GI50: 16.9 µM (inactive)
[58]
  GI50: 17.6 µM (inactive)
[29]
  GI50: 17 µM (inactive)
[30]
  GI50: 37.2 µM (inactive)
[31]
  GI50: 18 µM (inactive)
[32]
  GI50: 18.5 µM (inactive)
[33]
  GI50: 19.3 µM (inactive)
[34]
  GI50: 16 µM (inactive)
[35]
  GI50: 17.8 µM (inactive)
[36]
  GI50: 21.3 µM (inactive)
[37]
  GI50: 14.1 µM (inactive)
[38]
  GI50: 19.2 µM (inactive)
[39]
  GI50: 18.7 µM (inactive)
[59]
  GI50: 18.4 µM (inactive)
[40]
  GI50: 22.3 µM (inactive)
[41]
  GI50: 18.4 µM (inactive)
[42]
  GI50: 15.1 µM (inactive)
[43]
  GI50: 18.2 µM (inactive)
[44]
  GI50: 18.6 µM (inactive)
[45]
  GI50: 17.6 µM (inactive)
[46]
  GI50: 20.1 µM (inactive)
[47]
  GI50: 16.9 µM (inactive)
[48]
  GI50: 21.2 µM (inactive)
[49]
  GI50: 16.9 µM (inactive)
[50]
  GI50: 57.5 µM (inactive)
[51]
  GI50: 17.2 µM (inactive)
[52]
  GI50: 19.3 µM (inactive)
[53]
  GI50: 17.4 µM (inactive)
[54]
  GI50: 15.7 µM (inactive)

## CN1CCN(CN2C(=O)C3C4C=CC(C3C2=O)C2C(=O)N(CN3CCN(C)CC3)C(=O)C42)CC1 (stereo not given)
[1]
  GI50: 54 µM (inactive)
[3]
  GI50: > 10 µM (inactive)
[4]
  GI50: > 64.4 µM (inactive)
[5]
  GI50: 52.2 µM (inactive)
[6]
  GI50: 38.1 µM (inactive)
[7]
  GI50: 28.6 µM (inactive)
[8]
  GI50: 54.6 µM (inactive)
[9]
  GI50: 17.8 µM (inactive)
[10]
  GI50: > 100 µM (inactive)
[11]
  GI50: > 57.4 µM (inactive)
[12]
  GI50: 36.6 µM (inactive)
[13]
  GI50: 34 µM
[55]
  GI50: 20.5 µM (inactive)
[14]
  GI50: > 54.1 µM (inactive)
[56]
  GI50: > 100 µM (inactive)
[15]
  GI50: 22.5 µM (inactive)
[16]
  GI50: > 100 µM (inactive)
[17]
  GI50: 50.6 µM (inactive)
[18]
  GI50: 45.7 µM (inactive)
[19]
  GI50: 56.5 µM (inactive)
[57]
  GI50: 24.8 µM (inactive)
[20]
  GI50: > 51.3 µM (inactive)
[21]
  GI50: 27.2 µM (inactive)
[22]
  GI50: > 73.6 µM (inactive)
[23]
  GI50: > 74.6 µM (inactive)
[24]
  GI50: > 57.3 µM (inactive)
[25]
  GI50: 36.9 µM (inactive)
[26]
  GI50: > 55.3 µM (inactive)
[27]
  GI50: > 87.1 µM (inactive)
[28]
  GI50: > 49.8 µM (inactive)
[58]
  GI50: > 53.8 µM (inactive)
[29]
  GI50: > 42.1 µM (inactive)
[30]
  GI50: > 60.4 µM (inactive)
[31]
  GI50: > 59.6 µM (inactive)
[32]
  GI50: > 100 µM (inactive)
[33]
  GI50: > 100 µM (inactive)
[34]
  GI50: > 100 µM (inactive)
[35]
  GI50: > 84.5 µM (inactive)
[36]
  GI50: 20.7 µM (inactive)
[37]
  GI50: 27 µM (inactive)
[38]
  GI50: > 62.1 µM (inactive)
[39]
  GI50: > 82.4 µM (inactive)
[59]
  GI50: > 49.3 µM (inactive)
[40]
  GI50: > 42.9 µM (inactive)
[41]
  GI50: > 100 µM (inactive)
[42]
  GI50: 5.55 µM (inactive)
[43]
  GI50: > 100 µM (inactive)
[44]
  GI50: > 58.9 µM (inactive)
[45]
  GI50: > 63.1 µM (inactive)
[46]
  GI50: > 100 µM (inactive)
[47]
  GI50: 32.4 µM (inactive)
[48]
  GI50: 4.97 µM (inactive)
[49]
  GI50: > 68.4 µM (inactive)
[50]
  GI50: > 70.3 µM (inactive)
[51]
  GI50: > 54.5 µM (inactive)
[52]
  GI50: > 75.2 µM (inactive)
[53]
  GI50: 35 µM (inactive)
[54]
  GI50: > 87.3 µM (inactive)
